Measurements from paper PMC9780942, “Antimicrobial Activity and Immunomodulatory Properties of Acidocin A, the Pediocin-like Bacteriocin with the Non-Canonical Structure” (Membranes, 2022).
Positions of bridges follow the written chain, without caps; N, C: chain ends. No end group written: not given here.

How the values were obtained:
[1] = Circular dichroism spectroscopy, secondary structure estimation; assay type: physicochemical; conditions: calculated from previously published CD spectra
[2] = tested on: E. coli ML-35p cytoplasmic membrane; assay: Cytoplasmic membrane permeability assay with ONPG; assay type: cell-based; conditions: PBS pH 7.4 with NaCl, 35 °C, absorbance 405 nm, three independent experiments
Procedure: The ability of the peptides to disrupt the integrity of bacterial membranes was assessed using chromogenic substrates that are unable to enter the intact cell. For these assays, E. coli strain ML-35p was chosen that constitutively expresses β-lactamase (secreted into the periplasmic space), β-galactosidase (that is active in cytoplasm), and lacks lactose permease. Nitrocefin, which is a substrate for lactamase, served as an indicator of increased outer membrane permeability. o-Nitrophenyl-β-D-galactopyranoside (ONPG), a substrate for […], was used to assess the integrity of the cytoplasmic membrane. The bacterial cultures were grown to stationary phase in 3% TSB medium at 37 °C overnight. The cells were washed three times with cold 10 mM phosphate-buffered saline (PBS), pH 7.4 ([…], 2.7 mM KCl, 10 mM Na2HPO4, 1.76 mM KH2PO4), and diluted to the concentration of 3.3 × 10^7 CFU/mL with 10 mM PBS (pH 7.4), containing increased concentration of NaCl (1.2%, or 205 mM) and dissolved nitrocefin (Merck-Millipore, Burlington, MA, USA) or ONPG (AppliChem GmbH, Darmstadt, Germany). […] The plate was incubated at 35 °C, 500 rpm, and the absorbance of the hydrolysis products of ONPG or nitrocefin was measured spectrophotometrically at regular intervals at 405 nm or 492 nm, respectively, using AF2200 microplate reader (Eppendorf, Hamburg, Germany). […]

L. monocytogenes EGD [3] = assay type: cell-based, Listeria monocytogenes; conditions: 24 h
How it was run: (§1)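 MIC read as the minimum peptide concentration without visible growth, aided by 2 h resazurin (20 µg/mL) when needed. Cells from mid-log cultures (10^6 CFU/mL, 2x MHB or 3% TSB for Listeria) met two-fold bacteriocin dilutions in 0.1% BSA for 24 h at 37 °C with shaking.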

L. monocytogenes EGD [4] = assay: Agar diffusion (spot-on-lawn) assay; assay type: cell-based, Listeria monocytogenes; conditions: 1–10 µg peptide spotted on 3% TSB agar, 37 °C, 24 h
Procedure: Additionally, the activity of bacteriocins against L. monocytogenes EGD was qualitatively determined using agar diffusion (“spot-on-lawn”) assay. An amount of 5 µL of water solutions containing 1–10 µg of purified bacteriocins were applied to agar plates containing 3% TSB medium with mid-log phase culture of L. monocytogenes EGD diluted to a OD600 of about 0.001 (≅7 × 10^5 CFU/mL) and incubated overnight at 37 °C for 24 h. Antibiotic tetracycline (0.5 µg) was used as a positive control. The formation of visible zones of bacterial growth inhibition in places where bacteriocins were added indicated the presence of antimicrobial activity.

L. lactis MK43 = assay: Antibacterial activity assay (MIC), two-fold serial dilutions in liquid medium; assay type: cell-based; conditions: MHB, 0.1% BSA, 37 °C, 24 h, no visible growth
How it was run: as §1

Sequence: TYYGNGVSCNKKGCSVDWGKAISIIGNNSAANLATGGAAGWKS (disulfide 9-14) [Avicin A]
- Random ([1]; Aqueous solution): 39.3%
- α-Helix ([1]; Aqueous solution): 5.8%
- β-Sheet ([1]; Aqueous solution): 32.8%
- β-Turn ([1]; Aqueous solution): 22.1%
- Random ([1]; DPC micelles): 27.8%
- α-Helix ([1]; DPC micelles): 19.4%
- β-Sheet ([1]; DPC micelles): 28.6%
- β-Turn ([1]; DPC micelles): 21.6%
- Random ([1]; SDS micelles): 30.4%
- α-Helix ([1]; SDS micelles): 19.7%
- β-Sheet ([1]; SDS micelles): 29.3%
- β-Turn ([1]; SDS micelles): 23.1%
- Effect on cytoplasmic membrane integrity (ONPG hydrolysis kinetics) [2]: melittin >> acidocin A ≈ pediocin box mutants > peptides without a disulfide bond > avicin A >> AviA(T)
- Minimum Inhibitory Concentration (L. monocytogenes EGD [3]): <0.125 µM
- Antimicrobial activity, zones of growth inhibition (qualitative) (L. monocytogenes EGD [4]): high activity
- Antimicrobial activity, zones of growth inhibition (qualitative) (L. monocytogenes EGD [4]; listed as avicin A): presence of such activity
- Minimum Inhibitory Concentration (L. lactis MK43): >32 µM
